Among the data in patent publication US10087191B2, “Piperidine derivative and preparation method and pharmaceutical use thereof” (Jiangsu Hengrui Medicine Co., Ltd., priority 2015, dated 2018) are IC50 values, retold here.

The subject of experiment [1] is MCF7 cells. Nature of the experiment: Inhibition of the proliferation of MCF7 cells (Cell Titer-Glo). It counts as cell-based. The following applies: Homo sapiens, MCF-7 cells, 72 hours, read-out: IC50 value of inhibition effect on the proliferation of MCF7 cells. As to the method:
The object of this experiment was to determine the inhibition effect of the compounds on the proliferation activity of MCF7 cells, and the in vitro activity of the compounds was evaluated according to the IC50 value.
After incubation for 24 hours, the medium was removed, then 90 μl of the medium containing 2% FBS and 10 μl of the drug were added to each well, 10 μl of DMSO were added to the control group, and the blank group contained only 100 μl medium containing 2% FBS. The plate was gently shaken and incubated in a incubator at 37° C., 5% CO2. After 72 hours, 50 μl of mixed Cell Titer-Glo (Promega, Cat. No. G7571) were added to each well. The plate was shaken until the ingredients were well mixed, and placed at room temperature for 10 minutes, then the chemiluminescence signal value was determined.
The values of the chemiluminescence signals vs the logarithmic concentrations of the compounds were plotted using Graghpad Prism to obtain IC50 values.

In experiment [2] the target is estrogen receptor (ER) (Homo sapiens (Human), UniProt P03372). Description: Inhibition of the binding of estrogen (E) to estrogen receptor (ER), MCF-7/ERE-luciferase reporter cells. It counts as cell-based. To be noted: MCF-7/ERE-luciferase cells, 0.1 nM estradiol, 24 hours; read-out: IC50 value of inhibition effect on the binding of E to ER. The procedure:
The inhibition effect of the compounds on the binding of E to ER in vitro was tested by the following method.
The object of this experiment was to determine the inhibition effect of the compounds on the binding of E to ER, and the in vitro activity of the compounds was evaluated according to the IC50 value.
MCF-7/ERE-luciferase cells were inoculated into the MEM medium (hyclone, SH30024.01B) containing 10% charcoal stripped FBS (Moregate, FBSF), 1% sodium pyruvate (Sigma, Cat. No. S8636), 1% nonessential amino acids (Sigma, Cat. No. M7145) and 500 μg/ml G418 in a 96-well plate with a density of 30,000 cells/well, and the cells were incubated under the conditions of 37° C. and 5% CO2. […] After incubation for 24 hours, the medium was removed, then 0.1 nM estradiol (Sigma, Cat. No. E2758) and 10 μl of the drug diluted with the medium were added to each well, and the control group was added with DMSO. The plate was gently shaken and incubated in a incubator at 37° C., 5% CO2. After 24 hours, the cell culture medium was discarded.
The inhibition effect of the compounds of the present invention on the binding of E to ER was tested by the experiment described above.

pIC50: −log10 of the molar value.

Chain of estrogen receptor (ER) (P03372 whole entry): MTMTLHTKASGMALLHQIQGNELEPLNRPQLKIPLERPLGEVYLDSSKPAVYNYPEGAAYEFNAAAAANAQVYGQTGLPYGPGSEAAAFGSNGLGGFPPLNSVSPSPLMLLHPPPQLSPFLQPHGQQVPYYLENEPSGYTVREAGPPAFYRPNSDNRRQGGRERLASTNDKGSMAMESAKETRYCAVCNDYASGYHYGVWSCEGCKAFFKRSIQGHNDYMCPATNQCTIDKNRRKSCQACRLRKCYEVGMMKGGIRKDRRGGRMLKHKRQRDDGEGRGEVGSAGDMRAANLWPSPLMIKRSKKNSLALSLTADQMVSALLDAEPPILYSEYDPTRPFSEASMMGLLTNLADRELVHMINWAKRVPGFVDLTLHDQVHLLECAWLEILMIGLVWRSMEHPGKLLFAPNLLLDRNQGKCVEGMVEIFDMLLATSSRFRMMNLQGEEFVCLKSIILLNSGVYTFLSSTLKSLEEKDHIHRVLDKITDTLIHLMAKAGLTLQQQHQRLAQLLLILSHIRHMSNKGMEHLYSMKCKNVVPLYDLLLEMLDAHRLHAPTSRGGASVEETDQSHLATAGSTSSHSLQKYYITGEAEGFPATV

Take `CC1Cc2cc(OCC#N)ccc2C(c2c(F)cc(/C=C/C(=O)O)cc2F)N1CC(C)(C)F` [Example 33, (E)-3-(4-((1S,3R/1R,3S)-6-(cyanomethoxy)-2-(2-fluoro-2-methylpropyl)-3-methyl-1,2,3,4-tetrahydroisoquinolin-1-yl)-3,5-difluorophenyl)acrylic acid]: the pIC50 is 8.11 in experiment [1] and 7.42 in experiment [2].
For the compound `CC1Cc2cc(O[C@H]3CCOC3)ccc2C(c2c(F)cc(/C=C/C(=O)O)cc2F)N1CC(C)(C)F` (stereo partly drawn) [Example 37, (E)-3-(3,5-difluoro-4-((1S,3R/1R,3S)-2-(2-fluoro-2-methylpropyl)-3-methyl-6-(((S)-tetrahydrofuran-3-yl)oxy)-1,2,3,4-tetrahydroisoquinolin-1-yl)phenyl)acrylic acid], the pIC50 in experiment [1] is 8.32; in experiment [2], 7.86.
Regarding `CC1CN(c2ccc3c(c2)CC(C)N(CC(C)(C)F)C3c2c(F)cc(/C=C/C(=O)O)cc2F)CCO1` [Example 38, (E)-3-(3,5-difluoro-4-((1S,3R/1R,3S)-2-(2-fluoro-2-methylpropyl)-3-methyl-6-(2-methylmorpholino)-1,2,3,4-tetrahydroisoquinolin-1-yl)phenyl)acrylic acid], the pIC50 in experiment [1] is 8.87; in experiment [2], 8.35.
For `CC1Cc2cc(N3CCN(C)C(=O)C3)ccc2C(c2c(F)cc(/C=C/C(=O)O)cc2F)N1CC(C)(C)F` [Example 39, (E)-3-(3,5-difluoro-4-((1S,3R/1R,3S)-2-(2-fluoro-2-methylpropyl)-3-methyl-6-(4-methyl-3-oxopiperazin-1-yl)-1,2,3,4-tetrahydroisoquinolin-1-yl)phenyl)acrylic acid] the same measures were 8.63 and 7.85.
`CC1Cc2cc(N3Cc4ccncc4C3)ccc2C(c2c(F)cc(/C=C/C(=O)O)cc2F)N1CC(C)(C)F` [Example 42, (E)-3-(3,5-difluoro-4-((1S,3R/1R,3S)-2-(2-fluoro-2-methylpropyl)-3-methyl-6-(1H-pyrrolo[3,4-c]pyridin-2(3H)-yl)-1,2,3,4-tetrahydroisoquinolin-1-yl)phenyl)acrylic acid]: the results for the pIC50 in experiment [1] and in experiment [2] were 8.30 and 8.09, respectively.
As to `Cc1ccc(-c2ccc3c(c2)CC(C)N(CC(C)(C)F)C3c2c(F)cc(/C=C/C(=O)O)cc2F)s1` [Example 43, (E)-3-(3,5-difluoro-4-((1S,3R/1R,3S)-2-(2-fluoro-2-methylpropyl)-3-methyl-6-(5-methylthiophen-2-yl)-1,2,3,4-tetrahydroisoquinolin-1-yl)phenyl)acrylic acid], the pIC50 is 8.58 in experiment [1] and 8.30 in experiment [2].
Take `CC1Cc2cc(-c3cnn(C(C)C)c3)ccc2C(c2c(F)cc(/C=C/C(=O)O)cc2F)N1CC(C)(C)F` [Example 50, (E)-3-(3,5-difluoro-4-((1S,3R/1R,3S)-2-(2-fluoro-2-methylpropyl)-6-(1-isopropyl-1H-pyrazol-4-yl)-3-methyl-1,2,3,4-tetrahydroisoquinolin-1-yl)phenyl)acrylic acid]: the values for the pIC50 in experiment [1] and in experiment [2] were 8.31 and 8.01, respectively.
With `CC1Cc2cc(-c3ncco3)ccc2C(c2c(F)cc(/C=C/C(=O)O)cc2F)N1CC(C)(C)F` [Example 54, (E)-3-(3,5-difluoro-4-((1S,3R/1R,3S)-2-(2-fluoro-2-methylpropyl)-3-methyl-6-(oxazol-2-yl)-1,2,3,4-tetrahydroisoquinolin-1-yl)phenyl)acrylic acid], the pIC50 was 8.44 in experiment [1] and 8.03 in experiment [2].
For the compound `CC1Cc2cc(-c3cnc4ccccc4c3)ccc2C(c2c(F)cc(/C=C/C(=O)O)cc2F)N1CC(C)(C)F` [Example 62, (E)-3-(3,5-difluoro-4-((1S,3R/1R,3S)-2-(2-fluoro-2-methylpropyl)-3-methyl-6-(quinolin-3-yl)-1,2,3,4-tetrahydroisoquinolin-1-yl)phenyl)acrylic acid], the values for the pIC50 in experiment [1] and in experiment [2] were 7.79 and 7.87, respectively.
For `CC1Cc2cc(-c3ccc4ncccc4c3)ccc2C(c2c(F)cc(/C=C/C(=O)O)cc2F)N1CC(C)(C)F` [Example 63, (E)-3-(3,5-difluoro-4-((1S,3R/1R,3S)-2-(2-fluoro-2-methylpropyl)-3-methyl-6-(quinolin-6-yl)-1,2,3,4-tetrahydroisoquinolin-1-yl)phenyl)acrylic acid], the results for the pIC50 in experiment [1] and in experiment [2] were 9.24 and 8.77, respectively.
Regarding `Cc1nc2ccc(-c3ccc4c(c3)CC(C)N(CC(C)(C)F)C4c3c(F)cc(/C=C/C(=O)O)cc3F)cc2s1` [Example 66, (E)-3-(3,5-difluoro-4-((1S,3R/1R,3S)-2-(2-fluoro-2-methylpropyl)-3-methyl-6-(2-methylbenzo[d]thiazol-6-yl)-1,2,3,4-tetrahydroisoquinolin-1-yl)phenyl)acrylic acid], the pIC50 in experiment [1] was 8.79; in experiment [2], 8.49.
As to `C[C@H]1Cc2c(oc3ccccc23)[C@H](c2c(F)cc(/C=C/C(=O)O)cc2F)N1CC(C)(C)F` [Example 69, (E)-3-(3,5-difluoro-4-((1S,3S)-2-(2-fluoro-2-methylpropyl)-3-methyl-1,2,3,4-tetrahydrobenzofuro[2,3-c]pyridin-1-yl)phenyl)acrylic acid], the pIC50 in experiment [1] was 8.19; in experiment [2] it was 7.47.
On to `CC1Cc2c(ccc3c2OCO3)C(c2c(F)cc(/C=C/C(=O)O)cc2F)N1CC(C)(C)F` [Example 82, (E)-3-(3,5-difluoro-4-((6S,8R/6R,8S)-7-(2-fluoro-2-methylpropyl)-8-methyl-6,7,8,9-tetrahydro-[1,3]dioxolo[4,5-f]isoquinolin-6-yl)phenyl)acrylic acid], for which the values for the pIC50 in experiment [1] and in experiment [2] were 8.35 and 7.87, respectively.
On to `CC1Cc2cc3c(cc2C(c2ccc(/C=C/C(=O)O)cc2)N1CC(C)(C)F)OCO3` (centres unmarked) [Example 83, (E)-3-(4-(6-(2-fluoro-2-methylpropyl)-7-methyl-5,6,7,8-tetrahydro-[1,3]dioxolo[4,5-g]isoquinolin-5-yl)phenyl)acrylic acid], for which the pIC50 in experiment [1] is 7.76; in experiment [2], 7.69.
For `CC1Cc2c(oc3cc(Cl)ccc23)C(c2c(F)cc(/C=C/C(=O)O)cc2F)N1CC(C)(C)F` [Example 85, (E)-3-(4-((1R,3R/1S,3S)-7-chloro-2-(2-fluoro-2-methylpropyl)-3-methyl-1,2,3,4-tetrahydrobenzofuro[2,3-c]pyridin-1-yl)-3,5-difluorophenyl)acrylic acid] the same measures were 8.14 and 7.66.
For `C[C@@H]1Cc2cc(-c3ccc4cnccc4c3)ccc2[C@@H](c2c(F)cc(/C=C/C(=O)O)cc2F)N1CC(C)(C)F` [Example 98, (E)-3-(3,5-difluoro-4-((1S,3R)-2-(2-fluoro-2-methylpropyl)-3-methyl-1,2,3,4-tetrahydro-[6,6′-biisoquinolin]-1-yl)phenyl)acrylic acid] the same measures were 8.74 and 9.07.
As for `CC1Cc2c(ccc3[nH]ncc23)C(c2ccc(/C=C/C(=O)O)cc2)N1CC(C)(C)F` [Example 101, (E)-3-(4-((6S,8R/6R,8S)-7-(2-fluoro-2-methylpropyl)-8-methyl-6,7,8,9-tetrahydro-3H-pyrazolo[4,3-f]isoquinolin-6-yl)phenyl)acrylic acid], the results for the pIC50 in experiment [1] and in experiment [2] were 8.68 and 8.50, respectively.
In the case of `CC(C)CN1C(C)Cc2c(ccc3[nH]ncc23)C1c1ccc(/C=C/C(=O)O)cc1` [Example 102, (E)-3-(4-((6R,8R/6S,8S)-7-isobutyl-8-methyl-6,7,8,9-tetrahydro-3H-pyrazolo[4,3-f]isoquinolin-6-yl)phenyl)acrylic acid], the pIC50 is 8.30 in experiment [1] and 9.19 in experiment [2].
For the compound `CC1Cc2c(ccc3[nH]ncc23)C(c2c(F)cc(/C=C/C(=O)O)cc2F)N1C1CCCC1` [Example 103, (E)-3-(4-((6S,8R/6R,8S)-7-cyclopentyl-8-methyl-6,7,8,9-tetrahydro-3H-pyrazolo[4,3-f]isoquinolin-6-yl)-3,5-difluorophenyl)acrylic acid], the pIC50 is 8.53 in experiment [1] and 8.88 in experiment [2].
